Experimental data from US6677350B1, “Beta-fluoroethyl thiourea compounds and use” (priority 1999, dated 2004).
“And” between values parts separate entries of the source, which are not always exact repeats. Equal values may be shown once. Read-outs that look alike come from different tables or passages of the source.

Tested on: M. tuberculosis H37Rv (ATCC 27294)
Assay: In vitro anti-tuberculosis screening, BACTEC 460 radiometric system, percent inhibition of growth
Assay type: cell-based, Mycobacterium tuberculosis
Details: Mtb H37Rv; for Activity % inhibition at 12.5 μg/mL (chalcones) / inhibition at 12.5 µg/mL / Activity % Inhibition at 12.5 μg/mL (flavones) / Activity % inhibition at 12.5 μg/mL (chalcone-like compounds) / Activity % Inhibition at 12.5 μg/mL (biflavonoids) / Activity % Inhibition at 12.5 μg/mL (flavanones): BACTEC 12B medium; for inhibition of the growth of Mtb: drug concentration 12.5 μg/mL; for inhibition at 12.5 µg/mL: Mycobacterium tuberculosis

COc1ccc(C(=O)/C=C/c2cccc(I)c2)c(O)c1 [Compound 43]
Activity % inhibition at 12.5 μg/mL (chalcones) (12.5 μg/mL): 47% | inhibition of the growth of Mtb: 47%

O=c1cc(-c2ccc(O)c(-c3c(O)cc4oc(-c5ccc(O)cc5)cc(=O)c4c3O)c2)oc2cc(O)cc(O)c12 [Compound 166, Robustaflavone]
inhibition at 12.5 µg/mL (12.5 μg/mL, read-out: Activity % Inhibition at 12.5 μg/mL (biflavonoids)): 0%

COc1ccc(/C=C/C(=O)c2ccccc2F)cc1 [Compound 20]
Activity % inhibition at 12.5 μg/mL (chalcones) (12.5 μg/mL): 82%

COc1ccc(-c2cc(=O)c3c(OC)cc(OC)c(I)c3o2)cc1 [Compound 125]
Activity % Inhibition at 12.5 μg/mL (flavones) (12.5 μg/mL): 0%

O=c1cc(-c2ccccc2)oc2cc(Cl)ccc12 [Compound 122]
anti-TB activity in words (12.5 μg/mL): weakly active or inactive | Activity % Inhibition at 12.5 μg/mL (flavones) (12.5 μg/mL): 0%

COc1ccc(/C=C/C(=O)c2cc(C(=O)O)ccc2O)cc1 [Compound 16]
Activity % inhibition at 12.5 μg/mL (chalcones) (12.5 μg/mL): 0%

O=C(/C=C/c1ccccc1)c1cc(I)ccc1O [Compound 42]
Activity % inhibition at 12.5 μg/mL (chalcones) (12.5 μg/mL): 51% | inhibition of the growth of Mtb: 51% and 52%

Nc1ccc(C(=O)/C=C/c2ccccc2)cc1 [Compound 13]
Activity % inhibition at 12.5 μg/mL (chalcones) (12.5 μg/mL): 5%

COc1ccc(-c2cc(=O)c3ccccc3o2)cc1 [Compound 93]
Activity % Inhibition at 12.5 μg/mL (flavones) (12.5 μg/mL): 29%

COc1ccc(-c2oc3cc(I)ccc3c(=O)c2O)cc1 [Compound 91]
Activity % Inhibition at 12.5 μg/mL (flavones) (12.5 μg/mL): 43%

O=C(C=Cc1ccccn1)c1ccccn1 [Compound 60]
Activity % inhibition at 12.5 μg/mL (chalcone-like compounds) (12.5 μg/mL): 42%

COc1ccc(-c2cc(=O)c3cc(C(=O)O)ccc3o2)cc1 [Compound 115]
Activity % Inhibition at 12.5 μg/mL (flavones) (12.5 μg/mL): 2%

O=c1cc(-c2cccc(I)c2)oc2ccccc12 [Compound 101]
anti-TB activity in words (12.5 μg/mL): weakly active or inactive | Activity % Inhibition at 12.5 μg/mL (flavones) (12.5 μg/mL): 22%

O=c1cc(-c2ccccc2)oc2ccc(Br)cc12 [Compound 123]
anti-TB activity in words (12.5 μg/mL): weakly active or inactive | Activity % Inhibition at 12.5 μg/mL (flavones) (12.5 μg/mL): 0%

COc1ccc(/C=C/C(=O)c2cc(Br)ccc2O)cc1 [Compound 37]
Activity % inhibition at 12.5 μg/mL (chalcones) (12.5 μg/mL): 23% | inhibition of the growth of Mtb: 23%

CC(=O)Oc1ccc([C@@H]2CC(=O)c3c(cc(OC(C)=O)c(-c4c(OC(C)=O)cc(OC(C)=O)c5c4O[C@H](c4ccc(OC(C)=O)cc4)CC5=O)c3OC(C)=O)O2)cc1 [Compound 173, Rhusflavanone hexaacetate]
Activity % Inhibition at 12.5 μg/mL (biflavonoids) (12.5 μg/mL): 0%

O=c1c(O)c(-c2cccc(Br)c2)oc2ccccc12 [Compound 80]
Activity % Inhibition at 12.5 μg/mL (flavones) (12.5 μg/mL): 60%

COc1ccccc1C=CC(=O)c1ccccc1O [Compound 8]
Activity % inhibition at 12.5 μg/mL (chalcones) (12.5 μg/mL): 39%

COc1ccc2c(=O)cc(-c3ccccc3)oc2c1 [Compound 117]
Activity % Inhibition at 12.5 μg/mL (flavones) (12.5 μg/mL): 0%

O=C1CC(c2ccc(O)c(O)c2)Oc2c1c(O)cc(OC1OC(CO)C(O)C(O)C1O)c2C1C(=O)c2c(O)cc(O)cc2OC1c1ccc(O)cc1 (stereo not shown) [Compound 179, Xanthochymuside]
Activity % Inhibition at 12.5 μg/mL (biflavonoids) (12.5 μg/mL): 0%

O=C(/C=C/c1ccccc1)c1cccc(Br)c1O [Compound 32]
Activity % inhibition at 12.5 μg/mL (chalcones) (12.5 μg/mL): 79% | inhibition of the growth of Mtb: 79%

O=C(/C=C/c1ccccc1)c1cccc2ccccc12 [Compound 61]
Activity % inhibition at 12.5 μg/mL (chalcone-like compounds) (12.5 μg/mL): 37%

Nc1ccc(C(=O)C=Cc2cccnc2N)cc1 [Compound 73]
Activity % inhibition at 12.5 μg/mL (chalcone-like compounds) (12.5 μg/mL): 0%

O=C1c2c(O)cc(O)cc2OC(c2ccc(O)cc2)C1c1c(O[C@@H]2O[C@H](CO)[C@@H](O)[C@H](O)[C@H]2O)cc(O)c2c(=O)cc(-c3ccc(O)cc3)oc12 (stereo partly shown) [Compound 176, Spicataside]
Activity % Inhibition at 12.5 μg/mL (biflavonoids) (12.5 μg/mL): 0%

COc1ccc(/C=C/C(=O)c2ccccn2)cc1 [Compound 76]
Activity % inhibition at 12.5 μg/mL (chalcone-like compounds) (12.5 μg/mL): 0%

COc1ccc(-c2cc(=O)c3c(OC)cc(OC)cc3o2)cc1 [Compound 109]
Activity % Inhibition at 12.5 μg/mL (flavones) (12.5 μg/mL): 12%

O=C(/C=C/c1ccccc1)c1cc(Cl)ccc1O [Compound 26]
Activity % inhibition at 12.5 μg/mL (chalcones) (12.5 μg/mL): 67% | inhibition of the growth of Mtb: 67%

COc1ccc(/C=C/C(=O)c2cc(Cl)ccc2O)cc1 [Compound 29]
Activity % inhibition at 12.5 μg/mL (chalcones) (12.5 μg/mL): 20% | inhibition of the growth of Mtb: 20%

6-2′′′-Biapigenin [Compound 158]
Activity % Inhibition at 12.5 μg/mL (biflavonoids) (12.5 μg/mL): 1%

COc1ccc2c(c1)OC(c1ccccc1)C(C1C(=O)c3ccc(OC)cc3OC1c1ccccc1)C2=O (stereo not shown) [Compound 160, 3-3″-Bi-(7-methoxyflavanone)]
Activity % Inhibition at 12.5 μg/mL (biflavonoids) (12.5 μg/mL): 0%

O=C1C[C@@H](c2ccc(O)c(O)c2)Oc2c1c(O)cc(O)c2[C@H]1C(=O)c2c(O)cc(O)cc2O[C@@H]1c1ccc(O)cc1 [Compound 172, GB-2a]
Activity % Inhibition at 12.5 μg/mL (biflavonoids) (12.5 μg/mL): 0%

O=C(O)c1ccc(O)c(C(=O)C=Cc2cccc(I)c2)c1 [Compound 50]
Activity % inhibition at 12.5 μg/mL (chalcones) (12.5 μg/mL): 0% | inhibition of the growth of Mtb: 0%

O=c1c(O)c(-c2ccccc2)oc2cc(Cl)ccc12 [Compound 81]
Activity % Inhibition at 12.5 μg/mL (flavones) (12.5 μg/mL): 58%

O=C(/C=C/c1ccccc1Br)c1ccccc1O [Compound 31]
Activity % inhibition at 12.5 μg/mL (chalcones) (12.5 μg/mL): 83% | inhibition of the growth of Mtb: 83%

COc1ccc(-c2oc3ccccc3c(=O)c2O)cc1 [Compound 88, 4′-methoxyflavonol]
increase in activity compared to 92 (12.5 μg/mL): 10% | inhibition at 12.5 µg/mL (12.5 μg/mL, read-out: Activity % Inhibition at 12.5 μg/mL (flavones)): 48%

O=c1cc(-c2ccccc2)oc2c(I)cccc12 [Compound 114]
anti-TB activity in words (12.5 μg/mL): weakly active or inactive | Activity % Inhibition at 12.5 μg/mL (flavones) (12.5 μg/mL): 5%

COc1ccc(-c2oc3cc(OC)cc(OC)c3c(=O)c2-c2c(-c3ccc(OC)cc3)oc3cc(OC)cc(OC)c3c2=O)cc1 [Compound 159, 3-3″-Biapigenin hexamethylether]
anti-TB activity in words (12.5 μg/mL): completely devoid of activity | Activity % Inhibition at 12.5 μg/mL (biflavonoids) (12.5 μg/mL): 0%

O=C(/C=C/c1ccco1)c1ccc(Br)cc1O [Compound 63]
Activity % inhibition at 12.5 μg/mL (chalcone-like compounds) (12.5 μg/mL): 17%

COc1ccc(C=CC(=O)c2ccc(Cl)cc2O)cc1 [Compound 28]
Activity % inhibition at 12.5 μg/mL (chalcones) (12.5 μg/mL): 57% | inhibition of the growth of Mtb: 57%

O=C(/C=C/c1cccc(O)c1)c1ccccc1O [Compound 10]
Activity % inhibition at 12.5 μg/mL (chalcones) (12.5 μg/mL): 18%

O=C1c2ccccc2OC(c2ccccc2)C1(Br)Br (stereo not shown) [Compound 148]
Activity % Inhibition at 12.5 μg/mL (flavanones) (12.5 μg/mL): 0%

COc1cc(OC)c2c(c1)OC(c1cc(OC)c(OC)c(OC)c1)CC2=O (stereo not shown) [Compound 144]
Activity % Inhibition at 12.5 μg/mL (flavanones) (12.5 μg/mL): 0%

O=c1cc(-c2ccccc2)oc2ccc(F)cc12 [Compound 112]
anti-TB activity in words (12.5 μg/mL): weakly active or inactive | Activity % Inhibition at 12.5 μg/mL (flavones) (12.5 μg/mL): 7%

COc1ccc(-c2oc3ccc(F)cc3c(=O)c2O)cc1 [Compound 94]
Activity % Inhibition at 12.5 μg/mL (flavones) (12.5 μg/mL): 29%

O=c1cc(-c2ccc(Br)cc2)oc2ccccc12 [Compound 97]
anti-TB activity in words (12.5 μg/mL): weakly active or inactive | Activity % Inhibition at 12.5 μg/mL (flavones) (12.5 μg/mL): 26% | inhibition of the growth of Mtb: 26%

O=C1CC(c2ccccc2)Oc2ccc(Br)cc21 (stereo not shown) [Compound 142]
Activity % Inhibition at 12.5 μg/mL (flavanones) (12.5 μg/mL): 8%

COc1ccc(C(=O)/C=C/c2ccco2)c(O)c1 [Compound 65]
Activity % inhibition at 12.5 μg/mL (chalcone-like compounds) (12.5 μg/mL): 3%

Nc1ncccc1C=CC(=O)c1cc(Cl)ccc1O [Compound 72]
Activity % inhibition at 12.5 μg/mL (chalcone-like compounds) (12.5 μg/mL): 0%

COc1cc(O)c(C(=O)/C=C/c2cc(OC)c(OC)c(OC)c2)c(O)c1 [Compound 15]
Activity % inhibition at 12.5 μg/mL (chalcones) (12.5 μg/mL): 0%

COc1ccc(/C=C/C(=O)c2ccc([N+](=O)[O-])cc2)cc1 [Compound 4]
Activity % inhibition at 12.5 μg/mL (chalcones) (12.5 μg/mL): 62%

O=c1cc(-c2ccccc2O)oc2ccccc12 [Compound 116]
Activity % Inhibition at 12.5 μg/mL (flavones) (12.5 μg/mL): 1%

COc1ccc2c(c1)OC(c1cccc([N+](=O)[O-])c1)CC2=O (stereo not shown) [Compound 147]
Activity % Inhibition at 12.5 μg/mL (flavanones) (12.5 μg/mL): 0%

CC(=O)OC[C@H]1O[C@@H](Oc2cc(OC(C)=O)c3c(=O)cc(-c4ccc(OC(C)=O)cc4)oc3c2C2C(=O)c3c(OC(C)=O)cc(OC(C)=O)cc3OC2c2ccc(OC(C)=O)cc2)[C@H](OC(C)=O)[C@@H](OC(C)=O)[C@@H]1OC(C)=O (stereo partly shown) [Compound 177, Spicataside acetate]
Activity % Inhibition at 12.5 μg/mL (biflavonoids) (12.5 μg/mL): 0%

O=c1c(O)c(-c2ccccc2)oc2ccc(Br)cc12 [Compound 82]
Activity % Inhibition at 12.5 μg/mL (flavones) (12.5 μg/mL): 58%

COc1ccc(-c2oc3ccccc3c(=O)c2Br)cc1 [Compound 96]
Activity % Inhibition at 12.5 μg/mL (flavones) (12.5 μg/mL): 28%

COc1c(-c2ccccc2)oc2ccc(Br)cc2c1=O [Compound 89]
Activity % Inhibition at 12.5 μg/mL (flavones) (12.5 μg/mL): 44%

COc1ccc(-c2cc(=O)c3ccc(OC)cc3o2)cc1 [Compound 119]
Activity % Inhibition at 12.5 μg/mL (flavones) (12.5 μg/mL): 0%

O=c1cc(-c2ccccc2)oc2cc(Br)ccc12 [Compound 106]
anti-TB activity in words (12.5 μg/mL): weakly active or inactive | Activity % Inhibition at 12.5 μg/mL (flavones) (12.5 μg/mL): 15%

COc1ccc(C(=O)/C=C/c2ccncc2)cc1 [Compound 70]
Activity % inhibition at 12.5 μg/mL (chalcone-like compounds) (12.5 μg/mL): 0%

O=c1cc(-c2ccc(O)cc2)oc2ccccc12 [Compound 104]
Activity % Inhibition at 12.5 μg/mL (flavones) (12.5 μg/mL): 18%
